According to patent US20240024494A1, “SMALL-MOLECULE CONJUGATE AND USE THEREOF” (SHANGHAI MEWSGEN BIOTECHNOLOGY CO., LTD, priority 2020, published 2024):

Assays:
[1] = tested on: KYSE-150 (human esophageal squamous carcinoma cells); assay type: cell-based; conditions: 72 h
From the text: (§1) A part of the compounds of the examples of the present disclosure were subjected to a tumor cell proliferation inhibition test by using an MTT method (e.g. Pharmacological Research Method of New Drug, 2007: 242-243, edited by Lu Qiujun).
(§2) A cell strain was selected from KYSE-150 (human esophageal squamous carcinoma cells), MGC803 (human gastric carcinoma cells), and SHG44 (human glioma cells), and frozen and passaged by a pharmacological laboratory of Shanghai Institute of Pharmaceutical Industry. A culture solution was DMEM+10% FBS+double antibody.
(§3) In-vitro activity test: 100 μL of a cell suspension at a concentration of 4-5×10^4/mL was added to each well of a 96-well plate, and placed in a 5% CO2 incubator at 37° C. After 24 h, a sample solution was added at 10 μL/well, double duplicate wells were set, and a reaction was performed at 37° C. with 5% CO2 for 72 h. 20 μL of 5 mg/ml of an MTT solution was added into each well and reacted for 4 h, a dissolving solution was added at 100 μL/well, the mixture was placed in an incubator, and after dissolution, an OD value at 570 nm was measured with a full-wavelength multifunctional microplate reader. An inhibition rate (IR) and a median inhibitory concentration (IC50) were calculated by using an Excel software.
(§4) The inhibition rate (IR %) of the drug on cell growth was calculated according to the following equation: […]

[2] = tested on: MGC803 (human gastric carcinoma cells); assay type: cell-based; conditions: 72 h
From the text: as §1, §2, §3, §4

[3] = tested on: SHG44 (human glioma cells); assay type: cell-based; conditions: 72 h
From the text: as §1, §2, §3, §4

[4] = tested on: tumor cell strains (colon cancer, pancreatic cancer, esophageal squamous carcinoma, gastric cancer, glioma); test: Summary of in-vitro proliferation inhibition on tumor cell strains (Examples 19-21); assay type: cell-based, human
Description: (§5) A part of the compounds prepared in the examples of the present disclosure were subjected to a tumor cell proliferation inhibition test by using a CCK-8 method. A cell line HCT116 (human colon carcinoma cells) and SW1990 (human pancreatic carcinoma cells) were purchased from Shanghai Meixuan Technology Co., Ltd. Samples (a part of the compounds prepared in the examples) were dissolved in DMSO (Merck), prepared into a concentration of 10 mM, and finally triply diluted in DMEM or McCoy's 5A 1640 medium to 8 concentration gradients. A cell culture solution was collected when a cell culture met a test requirement, 10 μL of the cell culture solution was uniformly coated on a cell counting plate, cells were counted for 3 times under a microscope, and a cell density was calculated by taking an average value; and a 96-well plate (Corning, #3599) was taken, 200 μL of the cell culture solution was added into each well for cell inoculation at a cell concentration of 6×10^3 cells per well, and the inoculated 96-well plate was incubated in a cell incubator containing 5% CO2 at 37° C. for 24 h. An old culture medium was removed by suction, 200 μL of the triply diluted sample DMEM or McCoy's 5A 1640 medium at an initial concentration of 10 μmol/L was added to each well, the DMSO content was controlled to be 1%, three duplicate wells were set, PBS was used as a blank control, and the plate was incubated in the incubator for 72 h. The original DMEM or McCoy's 5A 1640 medium in the 96-well plate and a PBS buffer in a final row were sucked out, a prepared CCK-8 solution (90% DMEM or McCoy's 5A 1640 medium+10% CCK-8) was added, the mixture was incubated in an incubator, and an absorbance was read by using a Biotek microplate reader. Cell growth inhibition rate IC %=(blank control well OD value−administration well OD value)/blank control well OD value×100%.
as §3
A part of the compounds prepared in the examples of the present disclosure were subjected to a tumor cell proliferation inhibition test by using a CCK-8 method. Cell lines HCT116 (human colon cancer cells), MGC803 (human gastric cancer cells), and MIA PACA-2 (human pancreatic cancer cells) were purchased from Shanghai Meixuan Technology Co., Ltd. Samples (a part of the compounds prepared in the examples) were dissolved in DMSO (Merck), prepared into a concentration of 10 mM, and finally triply diluted in DMEM or McCoy's 5A 1640 medium to 8 concentration gradients. A cell culture solution was collected when a cell culture met a test requirement, 10 μL of the cell culture solution was uniformly coated on a cell counting plate, cells were counted for 3 times under a microscope, and a cell density was calculated by taking an average value; and a 96-well plate (Corning, #3599) was taken, 200 μL of the cell culture solution was added into each well for cell inoculation at a cell concentration of 6×10^3 cells per well, and the inoculated 96-well plate was incubated in a cell incubator containing 5% CO2 at 37° C. for 24 h. […]

[5] = tested on: HCT116 (human colon cancer cells); test: Tumor cell proliferation inhibition test, CCK-8 method (Example 21); assay type: cell-based; conditions: Homo sapiens, HCT-116; CCK-8, 72 h, Table 3; read-out: IC50 HCT116
Description: as §5, with “method. Cell lines” for “method. A cell line”, “colon cancer cells), MGC803 (human gastric cancer cells),” for “colon carcinoma cells)”, “and MIA PACA-2” for “and SW1990”, “pancreatic cancer” for “pancreatic carcinoma”

[6] = tested on: MIA PACA-2 (human pancreatic cancer cells); test: as above; assay type: cell-based; conditions: Homo sapiens, MIA PaCa-2; CCK-8, 72 h, Table 3; read-out: IC50 MIA PACA-2
Description: as §5, with “method. Cell lines” for “method. A cell line”, “colon cancer cells), MGC803 (human gastric cancer cells),” for “colon carcinoma cells)”, “and MIA PACA-2” for “and SW1990”, “pancreatic cancer” for “pancreatic carcinoma”

SMILES | IC50 [1] [nM] | IC50 [2] [nM] | IC50 [3] [nM] | Proliferation inhibition activities IC50 on most tumor cell strains (in words) [4] | IC50 [5] [nM] | IC50 [6] [nM]
COc1cc(C(=O)NCCOCCOCCOCCOCCC(=O)N[C@@H](C(=O)N[C@@H](CCCNC(N)=O)C(=O)Nc2ccc(COC(=O)N3CCN(C(=O)O[C@H]4CC[C@@]5(C)[C@H](CC[C@@H]6[C@@H]5[C@H](O)C(=O)[C@]5(C)[C@@H](c7ccc(=O)oc7)CC[C@]65O)C4)CC3)cc2)C(C)C)ccc1NC(=O)[C@@H]1N[C@@H](CC(C)(C)C)[C@](C#N)(c2ccc(Cl)cc2F)[C@H]1c1cccc(Cl)c1F [Compound I-1] | 40 | 9 | 3 | between several to hundreds of nanomoles | – | –
COc1cc(C(=O)O)ccc1NC(=O)[C@@H]1N[C@@H](CC(C)(C)C)[C@](C#N)(c2ccc(Cl)cc2F)[C@H]1c1cccc(Cl)c1F [Idasanutlin, reference compound] | – | – | – | – | 110 | > 10000
